Patent US20220290103A1, “METHODS AND COMPOSITIONS USING AUXOTROPHIC REGULATABLE CELLS” (AUXOLYTIC LTD, priority 2019, published 2022)

Tests used:
UMPS knockout T cells [1] = assay: Cell counts over time after electroporation (Trypan blue); type: cell-based, human; settings: supplemented at 250 μg/ml
Excerpt: To evaluate whether the UMPS knockout leads to differential cell proliferation if cultured without the addition of Uridine or Uridine monophosphate (UMP), the cell counts in culture were followed over time by automatic cell counting with Trypan blue staining. UMPS knockout led to lower cell counts from day 2 after electroporation, compared to cells that were mock electroporated or electroporated using Cas9 targeting a different genomic locus (i.e., CCR5) (FIG. 5B).
In contrast, cell proliferation was not impaired after UMPS knockout if UMP or Uridine were supplemented at high concentrations (250 μg/ml each) (FIG. 5C).

UMPS-7 targeted T cells = assay: 5-FOA selection, cell counts after 4 days; type: cell-based, human; settings: both mock treated and UMPS targeted cells
Description: 5-FOA selects for uracil auxotrophic cells in other organisms (e.g. Boeke et al. 1984, Mol. Gen. Genet. 197(2):345-6), which is hereby incorporated by reference in its entirety). To investigate the potential utility of 5-FOA for the selection of uracil auxotrophs among human cells, the UMPS gene was targeted in human T cells by Cas9-gRNA complex electroporation followed by recovery (as shown in Example 2) followed by an assay of resistance to 5-FOA treatment (FIG. 3A). Cells were grown in 5-FOA and a variety of combinations of serum and uracil sources for 4 days before cell counting was performed.

CCR5 knockout T cells = assay: Time course of cell counts with/without UMP or uridine; type: cell-based, human; settings: with metabolite 250 μg/ml
Description: (§1) Cells were cryopreserved in BAMBANKER™ medium. After thawing cells were cultured at 37° C., 5% CO2 in X-Vivo 15 (Lonza) supplemented with or without 5% human serum (Sigma-Aldrich) and […] human recombinant IL-2 (Peprotech) and 10 ng/ml human recombinant IL-7 (BD Biosciences). UMP or Uridine was added at 250 μg/ml. 5-FOA was added at 100 μg/ml to 1 mg/ml. During culture, medium was refreshed every 2 days.
(§2) Genomic DNA was harvested using QUICKEXTRACT™ DNA Extraction Kit (Epicentre). Cells were counted on an automated cell counter using Trypan blue staining or on a CytoFLEX flow cytometer (Beckman Coulter) with automatic plate reader using COUNTBRIGHT™ beads (ThermoFisher) as a reference for normalizing the values. Alternatively, cells were analyzed after staining with fluorochrome-labelled antibodies (Biolegend) on an ACCURI™ C6 flow cytometer (BD Biosciences), which also measures volumes, or a FACS ARIA™ II SORP cell sorter (BD Biosciences). Data was analyzed using Excel (Microsoft) and FlowJo software (Tree Star).
(§3) T Cells were electroporated and edited as in Example 2 and allowed to recover for a 4-day period in medium with serum, uridine, and UMP. On day 4, cells were shifted to UMP, uridine, or uracil source media.

UMPS knockout T cells [2] = assay: as above; type: cell-based, human; settings: to the same level as mock edited cells
Description: as §1, §2, §3

Mock edited T cells = assay: as above; type: cell-based, human; settings: with metabolite 250 μg/ml
Description: as §1, §2, §3

UMPS locus [3] = assay: InDel frequency at end of culture; type: cell-based, human; settings: UMPS knockout T cells not exposed to 5-FOA, with metabolite, day 8
Excerpt: To confirm the results on the genomic level, genomic DNA was harvested at the end of the experiment and InDels were quantified (FIG. 5D-FIG. 5E). FIG. 5D compares the frequency of InDels in different culture conditions for cells not exposed to 5-FOA.

UMPS^KO/KO hESCs = assay: Auxotrophy assay with different uridine concentrations; type: cell-based, human; settings: 2.5-250 μg/ml uridine, day 4
Description: The UMP S locus was disrupted in the hESCs by electroporation of Cas9 RNP and selection of a clone with InDels in exon 1 as evaluated by amplification and Sanger sequencing of the genomic locus. For gene editing, hESCs were treated with 10 μm ROCK inhibitor (Y-27632) for 24 hours before electroporation. Cells at 70-80% confluence were harvested with ACCUTASE® solution (Life Technologies). 500,000 cells were used per reaction with a SpCas9 concentration of 150 μg/mL (Integrated DNA Technologies) and a Cas9:sgRNA molar ratio of 1:3 and electroporation performed in P3 Primary Cell solution (Lonza) in 16-well NUCLEOCUVETTE™ Strips in the 4D NUCLEOFECTOR system (Lonza). Immediately after electroporation, cells were transferred into one well of a […]® protein mixture (Corning, Inc.)-coated 24 well plate containing 500 μl of mTeSR™ media ([…] Technologies) with 10 μM Y-27632. Media was changed 24 hours after editing and Y-27632 was removed 48 hours after.
An auxotrophy assay was performed over four days with different concentrations of uridine. Microscope photos of wells were taken on day 4 after seeding UMPS^KO/KO hESCs at similar densities and culturing in the presence of different uridine concentrations. […] Quantification of viable cells on day 4 after seeding to evaluate the effect of different uridine concentrations is shown in Table 15.

[4] = also broken down in the liver; cited from earlier work
UMPS locus [5] = assay: sgRNA activity screening, InDel quantification by ICE and ICE-D; type: cell-based, human; settings: activated T cells, 4 days after electroporation with Cas9
Excerpt: sgRNAs were acquired with chemical modifications from Synthego Corporation. The sgRNAs were complexed with Cas9 protein (IDT) at a molar ration of 2.5:1 (sgRNA:protein) and electroporated into activated T cells using a 4D-NUCLEOFECTOR™ system (Lonza). 4 days later, cells were harvested, and genomic DNA extracted using QUICKEXTRACT™ DNA Extraction Kit (Epicentre) according to the manufacturer's protocol. The sgRNA target site was amplified with specific primers (Table 18) and the amplicon sequenced by Sanger sequencing (MCLab, South San Francisco).
InDel quantification was performed on the sequences using the interference of CRISPR edits (ICE) and ICE-D online tools (ice.synthego.com) (FIG. 5A).

## O=c1ccn([C@@H]2O[C@H](COP(=O)(O)O)[C@@H](O)[C@H]2O)c(=O)[nH]1 [UMP, Uridine monophosphate]
UMPS knockout T cells [1]
  Cell proliferation after UMPS knockout: not impaired
UMPS-7 targeted T cells
  Survival in 5-FOA compared to control: improved the survival
CCR5 knockout T cells; Day 2
  Cell density: 1.80E+06 cells per ml
CCR5 knockout T cells; Day 6
  Cell density: 3.80E+06 cells per ml
UMPS knockout T cells [2]
  Growth of UMPS edited culture: rescued the growth
Mock edited T cells; Day 4
  Cell density: 3.80E+06 cells per ml
Mock edited T cells; Day 8
  Cell density: 3.90E+06 cells per ml
UMPS locus [3]
  Frameshift InDel frequency: 46.1%
  Overall InDel frequency: 71.1%

## O=c1ccn([C@@H]2O[C@H](CO)[C@@H](O)[C@H]2O)c(=O)[nH]1 [Uridine, uridine]
UMPS knockout T cells [1]
  Cell proliferation after UMPS knockout: not impaired
UMPS^KO/KO hESCs
  Proliferation (microscope photos): proliferated
UMPS-7 targeted T cells
  Survival in 5-FOA compared to control: improved the survival
CCR5 knockout T cells; Day 4
  Cell density: 3.70E+06 cells per ml
UMPS knockout T cells [2]
  Growth of UMPS edited culture: rescued the growth
Mock edited T cells; Day 4
  Cell density: 3.90E+06 cells per ml
[4]
  Absorption in the gastrointestinal tract: poorly absorbed
UMPS locus [3]
  Frameshift InDel frequency: 52.5%
  Overall InDel frequency: 77.0%

B1: UMPS-7: sgRNA targeting exon 1 of UMPS, SEQ ID NO: 1; target sequence + PAM SEQ ID NO: 5 (nucleic acid)
guide: GCCCCGCAGAUCGAUGUAGAGUUUUAGAGCUAGAAAUAGCAAGUUAAAAUAAGGCUAGUCCGUUAUCAACUUGAAAAAGUGGCACCGAGUCGGUGCUUUU
modifications: listed as RNA, chemistry not given here
UMPS locus [5]
  ICE InDels: 39%
  ICE-D InDels: 93%
